Laboratory results published in patent US20090131513A1, “ANTI-INFLAMMATORY MODALITIES” (Novogen Research Pty Ltd., priority 2005, published 2009).

Legend:
TX synthase (TXS) = biological target: T1, TX synthase (TXS) (Homo sapiens, UniProt P24557); test: TXB2 synthesis following addition of exogenous PGH2 to U937 cells; assay type: cell-based; conditions: 1, 10, 100 μM, undifferentiated U937 cells, PGH2 5 μM
T1 construct: endogenous in cells; host or cells: undifferentiated U937 cells
T1 sequence (P24557 1-533): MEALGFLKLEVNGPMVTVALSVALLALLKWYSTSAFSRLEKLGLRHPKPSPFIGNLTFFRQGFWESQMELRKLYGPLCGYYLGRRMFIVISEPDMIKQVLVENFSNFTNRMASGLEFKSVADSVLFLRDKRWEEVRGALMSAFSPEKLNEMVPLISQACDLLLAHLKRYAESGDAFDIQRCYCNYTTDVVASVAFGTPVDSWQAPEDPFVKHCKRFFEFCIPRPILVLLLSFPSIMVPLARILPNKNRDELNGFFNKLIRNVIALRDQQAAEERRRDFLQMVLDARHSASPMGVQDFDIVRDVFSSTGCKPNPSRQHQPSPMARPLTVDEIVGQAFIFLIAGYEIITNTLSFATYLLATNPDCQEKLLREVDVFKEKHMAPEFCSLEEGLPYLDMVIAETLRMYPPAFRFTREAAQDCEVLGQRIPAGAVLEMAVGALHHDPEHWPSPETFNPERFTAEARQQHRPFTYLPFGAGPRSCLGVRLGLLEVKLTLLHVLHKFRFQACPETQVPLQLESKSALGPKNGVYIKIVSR
Description: To examine effects of test compounds directly on TX synthase (TXS), a different assay system was used. Whereas arachidonic acid (AA) is the substrate for COX, PGH2 is the substrate for TX synthase. To examine directly the effect of these compounds on TXS, exogenous ? elow:
Test compounds at 0 μM, 1 μM, 10 μM and 100 μM (in DMSO) were incubated with undifferentiated U937 cells (6×10^6/ml) for 30 min at 37° C., after which PGH2 (5 μM) was added. After incubation for 10 min, the reaction was terminated by centrifugation and the supernatants were collected and TXB2 production was measured in triplicate by RIA. ANOVA followed by Newman-Keuls multiple comparisons test was used to examine differences between doses and the control values. A statistical significance level of 0.05 was used and differences from control values are indicated by an asterisk (*).

[1] = test system: NO synthesis in mouse macrophage cell line RAW 264.7; test: Inhibition of nitric oxide synthesis (Griess reaction); assay type: cell-based; conditions: 10 μM
Description: Exposure of various cells (e.g. macrophages and smooth muscle cells) to bacterial LPS and proinflammatory cytokines induces iNOS which generates NO. NO production can be indirectly quantified by measurement of nitrite (NO2—), a stable breakdown product of NO. The mouse macrophage cell line RAW 264.7 was cultured in DMEM supplemented with FCS, 2 mM glutamine and 50 U/ml penicillin/streptomycin. Cells were treated with either test compound at 10 μM (in 0.125% DMSO) or vehicle alone, together with 10 ng/ml LPS. After incubation for 24 hrs, culture media was collected and analysed immediately for NO concentration using the Griess reaction (Eigler et al. 1995).

[2] = test system: AA-induced ear inflammation; test: Murine ear inflammation induced by arachidonic acid; assay type: in vivo, mice (BALB/c); conditions: for Increase in ear thickness (mean ± SD, ×0.01 mm): 25 mg/kg i/p, 1 hr post-AA application
Description: Compounds were examined for their ability to inhibit ear swelling in mice induced by the topical application of arachidonic acid (AA). The inflammatory response due AA, the immediate precursor of the eicosanoids, is due to formation of AA metabolites via both the cyclooxygenase (COX) and lipoxygenase (LOX) pathways (Young et al. 1984). AA induces an increase in both PGE2 and LTC4 synthesis which precedes the increase in ear thickness (Opas et al. 1985; Chang et al. 1986).
Female BALB/c mice (ARC, WA, Australia), weighing 15-21 g were injected with Compound 2 delivered in polyethylene glycol (PEG) 400:phosphate buffered saline (PBS) 1:1 intraperitoneally (i/p) at a dose of 25 mg/kg either 30 min prior to or immediately before the application of AA to the ears. Mice were anaesthetized using isoflurane and baseline thickness of both ears was measured using a spring micrometer. Each mouse received a total of 20 μL of AA in ethanol (50 mg/ml) applied to the inner and outer surfaces of each pinna (i.e. 0.5 mg AA per ear). Mice were anaesthetized again to remeasure the ears at 1 hr post-AA application.
The difference in ear swelling pre- and post-application of AA for each ear was calculated, and the average for the two ears of each mouse calculated. The difference in mean swelling of each test group compared to the group given vehicle alone was calculated using a two-tailed unpaired t test (Prism 4, GraphPad Software).

[3] = test system: UV irradiation-induced skin oedema; test: Murine model of UV irradiation-induced skin oedema; assay type: in vivo, mice (Skh:hr-1 albino); conditions: for Increase in skin thickness (mean ± SD, ×0.01 mm): topical 0.2 ml of 20 μM at 30 min, 2 h, 4 h; for skin oedema, in words: 48 hrs, topical
Description: Groups of 4-5 female Skh:hr-1 albino mice were irradiated with 1×3 MEdD (minimal edematous dose) of solar simulated UV radiation (SSUV). Solar-simulated ultraviolet radiation (SSUV) was provided by a planar bank of 6 UVA tube (Hitachi 40 W F40 T 10/BL, black light) and one UVB tube (Philips TL 40 W/12 RS) with radiation filtered through a sheet of 0.125 mm cellulose acetate (Eastman Chemical Products, Kingport, Term, USA) to give 2.96×10-4 W/cm2 UVA and 1.59×10-5 W/cm2 UVB. During irradiation, the cages were rotated below the lights to reduce the variation in radiation intensity in different positions.
Either test compound (0.2 ml of a 20 μM solution) or vehicle (propylene glycol/ethanol/water 1:2:1) was applied to the irradiated dorsal skin at 30 min, 2 h and 4 h post-irradiation. Dorsal skin fold measurements were made with a spring micrometer prior to and at 24 hr and 48 h post-UV exposure. The difference in skin thickness pre- and post-exposure to UVR was calculated for each mouse, and the differences examined between test compound and vehicle control were analysed using an unpaired two-tailed t test.

| Structure (SMILES) | thromboxane synthase inhibition (TXB2 synthesis after exogenous PGH2), selectivity in words (TX synthase (TXS)) | NO synthesis, direction of effect in words [1] | Increase in ear thickness (mean ± SD, ×0.01 mm) [2] | Increase in skin thickness (mean ± SD, ×0.01 mm) ([3]; 24 hrs post-irradiation) | Increase in skin thickness (mean ± SD, ×0.01 mm) ([3]; 48 hrs post-irradiation) | skin oedema, in words [3] | AA-induced ear inflammation / ear thickness compared with vehicle, in words ([2]; mouse, in vivo) |
| --- | --- | --- | --- | --- | --- | --- | --- |
| O=C1c2ccc(O)c(Br)c2OCC1c1ccc(O)cc1 (stereo not drawn) [Compound 1, 3-(4-hydroxyphenyl)-7-hydroxy-8-bromo-chroman-4-one] | selective thromboxane synthase inhibitors | inhibited NO synthesis | 9.5 ± 2.3 ×0.01 mm | 54 ± 20 ×0.01 mm | 91 ± 7.6 ×0.01 mm | significantly inhibited | – |
| Oc1ccc(C2COc3c(ccc(O)c3O)C2O)cc1 (stereo not drawn) [Compound 2] | selective thromboxane synthase inhibitors | induced it | 6.5 ± 2.9 ×0.01 mm | 68 ± 24 ×0.01 mm | 105 ± 22 ×0.01 mm | significantly inhibited | significant reduction in ear thickness |
| O=C1c2cc(Cl)c(O)cc2OCC1c1ccc(O)cc1 (stereo not drawn) [Compound 4] | selective thromboxane synthase inhibitors | induced it | 9.2 ± 3.6 ×0.01 mm | 63 ± 22 ×0.01 mm | 145 ± 11 ×0.01 mm | – | – |
